Laboratory results taken from US4360665A, “4"-N-(Substituted)-apramycin antibiotic derivatives and intermediates therefor” (Eli Lilly and Company, priority 1981, dated 1982).
≈ marks a conversion by molar mass, not a printed value. Read-outs that look alike come from different tables or passages of the source.

Tests used:
[1] = test system: Staphlyococcus aureus 3055; assay: Subcutaneous therapy of experimental bacterial infection in mice; format: in vivo; conditions: Mus musculus, sc, subcutaneous doses at 1 and 5 hours postinfection, read-out: Effective Dose (ED50), dose to protect 50 percent of the test animals
Experimental: Table III illustrates the effective dose (ED50, effective dose to protect 50 percent of the test animals) for a representative compound of this invention against an experimental bacterial infection in mice. | *mg/kg × 2 subcutaneous doses at 1 and 5 hours postinfection The ED50 value was determined as described by W. E. Wick et al., Journal of Bacteriology, 81 [No. 2], 233-235 (1961).

[2] = test system: Pseudomonas aeruginosa Ps18; assay: MIC by standard agar dilution test; format: cell-based; conditions: Table 1; Pseudomonas aeruginosa Ps18; agar dilution; read-out: Minimum Inhibitory Concentration
Description: (§1) The antibacterial activity of the antibiotic compounds of this invention is illustrated by the following in vitro and in vivo test data obtained with representative compounds. In Tables I and II, the minimum inhibitory concentration (MIC) for representative compounds against a wide range of gram-positive and gram-negative bacteria are presented. The MIC values were obtained by the standard agar dilution test.

Proteus morganii PR15 = assay: MIC by standard agar dilution test; format: cell-based; conditions: Morganella morganii, Table 1, read-out: Minimum Inhibitory Concentration
Description: as §1

[3] = test system: Streptococcus pyogenes C203; assay: MIC by standard agar dilution test; format: cell-based; conditions: Table 1, read-out: Minimum Inhibitory Concentration
Description: as §1

[4] = test system: Streptococcus group D X66; assay: MIC by standard agar dilution test; format: cell-based; conditions: DX66, Table 1, read-out: Minimum Inhibitory Concentration
Description: as §1

Enterobacter cloacae EB5 = assay: MIC by standard agar dilution test; format: cell-based; conditions: Table 1, read-out: Minimum Inhibitory Concentration
Description: as §1

[5] = test system: Pseudomonas aeruginosa PI23; assay: MIC by standard agar dilution test; format: cell-based; conditions: Table II, read-out: Minimum Inhibitory Concentration
Description: as §1

[6] = test system: Klebsiella pneumoniae KAE; assay: MIC by standard agar dilution test; format: cell-based; conditions: Table 1, read-out: Minimum Inhibitory Concentration
Description: as §1

Proteus rettgeri PR2 = assay: MIC by standard agar dilution test; format: cell-based; conditions: Providencia rettgeri, Table II, read-out: Minimum Inhibitory Concentration
Description: as §1

[7] = test system: Streptococcus pneumoniae Park 1; assay: MIC by standard agar dilution test; format: cell-based; conditions: PARK1, Table 1, read-out: Minimum Inhibitory Concentration
Description: as §1

[8] = test system: Enterobacter aerogenes C32; assay: MIC by standard agar dilution test; format: cell-based; conditions: Klebsiella aerogenes, Table 1, read-out: Minimum Inhibitory Concentration
Description: as §1

[9] = test system: Klebsiella pneumoniae X26; assay: MIC by standard agar dilution test; format: cell-based; conditions: Table 1, read-out: Minimum Inhibitory Concentration
Description: as §1

[10] = test system: Streptococcus group D 9960; assay: MIC by standard agar dilution test; format: cell-based; conditions: D9960, Table 1, read-out: Minimum Inhibitory Concentration
Description: as §1

[11] = test system: Pseudomonas aeruginosa 4276; assay: MIC by standard agar dilution test; format: cell-based; conditions: Table II, read-out: Minimum Inhibitory Concentration
Description: as §1

[12] = test system: Pseudomonas aeruginosa Ps15; assay: MIC by standard agar dilution test; format: cell-based; conditions: Table II, read-out: Minimum Inhibitory Concentration
Description: as §1

[13] = test system: Pseudomonas aeruginosa Ps25; assay: MIC by standard agar dilution test; format: cell-based; conditions: Table II, read-out: Minimum Inhibitory Concentration
Description: as §1

[14] = test system: Enterobacter cloacae 265A; assay: MIC by standard agar dilution test; format: cell-based; conditions: Table 1, read-out: Minimum Inhibitory Concentration
Description: as §1

[15] = test system: Staphylococcus aureus X400; assay: MIC by standard agar dilution test; format: cell-based; conditions: Table 1, read-out: Minimum Inhibitory Concentration
Description: as §1

[16] = test system: Pseudomonas aeruginosa X239; assay: MIC by standard agar dilution test; format: cell-based
Description: as §1

[17] = test system: Staphylococcus aureus V41; assay: MIC by standard agar dilution test; format: cell-based; conditions: Table 1, read-out: Minimum Inhibitory Concentration
Description: as §1

[18] = test system: Enterobacter aerogenes EB6; assay: MIC by standard agar dilution test; format: cell-based; conditions: Klebsiella aerogenes; Table II; Enterobacter aerogenes EB6; agar dilution; read-out: Minimum Inhibitory Concentration
Description: as §1

[19] = test system: Pseudomonas aeruginosa SF-2; assay: MIC by standard agar dilution test; format: cell-based; conditions: SF2, Table II, read-out: Minimum Inhibitory Concentration
Description: as §1

[20] = test system: Pseudomonas aeruginosa Ps9; assay: MIC by standard agar dilution test; format: cell-based; conditions: Table II, read-out: Minimum Inhibitory Concentration
Description: as §1

[21] = test system: Pseudomonas aeruginosa X528; assay: MIC by standard agar dilution test; format: cell-based
Description: as §1

[22] = test system: Staphylococcus epidermidis EPI2; assay: MIC by standard agar dilution test; format: cell-based; conditions: Table 1, read-out: Minimum Inhibitory Concentration
Description: as §1

[23] = test system: Salmonella typhimurium 1335; assay: MIC by standard agar dilution test; format: cell-based; conditions: Salmonella enterica, Table 1, read-out: Minimum Inhibitory Concentration
Description: as §1

[24] = test system: Pseudomonas aeruginosa X48; assay: MIC by standard agar dilution test; format: cell-based; conditions: Table II, read-out: Minimum Inhibitory Concentration
Description: as §1

Proteus rettgeri PR7 = assay: MIC by standard agar dilution test; format: cell-based; conditions: Providencia rettgeri, Table 1, read-out: Minimum Inhibitory Concentration
Description: as §1

[25] = test system: Bordetella bronchiseptica 16; assay: MIC by standard agar dilution test; format: cell-based; conditions: Bordetella bronchiseptica, 16, read-out: Minimum Inhibitory Concentration
Description: as §1

Proteus inconstans PV25 = assay: MIC by standard agar dilution test; format: cell-based; conditions: Providencia alcalifaciens, Table II, read-out: Minimum Inhibitory Concentration
Description: as §1

Serratia marcescens X99 = assay: MIC by standard agar dilution test; format: cell-based
Description: as §1

[26] = test system: Enterobacter cloacae EN453; assay: MIC by standard agar dilution test; format: cell-based; conditions: Table II, read-out: Minimum Inhibitory Concentration
Description: as §1

[27] = test system: Staphylococcus aureus X1.1; assay: MIC by standard agar dilution test; format: cell-based; conditions: Table 1, read-out: Minimum Inhibitory Concentration
Description: as §1

[28] = test system: Staphylococcus epidermidis EPI1; assay: MIC by standard agar dilution test; format: cell-based; conditions: Table 1, read-out: Minimum Inhibitory Concentration
Description: as §1

Escherichia coli TEM = assay: MIC by standard agar dilution test; format: cell-based; conditions: read-out: Minimum Inhibitory Concentration
Description: as §1

Escherichia coli EC14 = assay: MIC by standard agar dilution test; format: cell-based; conditions: Table 1, read-out: Minimum Inhibitory Concentration
Description: as §1

[29] = test system: Haemophilus influenzae HOLT; assay: MIC by standard agar dilution test; format: cell-based; conditions: Table 1, read-out: Minimum Inhibitory Concentration
Description: as §1

Shigella sonnei N9 = assay: MIC by standard agar dilution test; format: cell-based; conditions: Table 1, read-out: Minimum Inhibitory Concentration
Description: as §1

Serratia marcescens SE2 = assay: MIC by standard agar dilution test; format: cell-based; conditions: Table II, read-out: Minimum Inhibitory Concentration
Description: as §1

[30] = test system: Enterobacter aerogenes EB17; assay: MIC by standard agar dilution test; format: cell-based; conditions: Klebsiella aerogenes, Table 1, read-out: Minimum Inhibitory Concentration
Description: as §1

CN[C@@H]1[C@@H](O[C@H]2O[C@H](CO)[C@@H](NC(C)=O)[C@H](O)[C@H]2O)O[C@H]2C[C@@H](N)[C@@H](O[C@H]3[C@H](O)[C@@H](O)[C@H](N)C[C@@H]3N)O[C@@H]2[C@@H]1O [Test Compound 1, 4"-N-Acetylapramycin]
ED50 [1]: 9.4 mg/kg
MIC [2]: 16 µg/mL (≈ 27.5 µM)
MIC (Proteus morganii PR15): 32 µg/mL (≈ 55 µM)
MIC [3]: > 128 µg/mL
MIC [4]: > 128 µg/mL
MIC (Enterobacter cloacae EB5): 32 µg/mL (≈ 55 µM)
MIC [5]: > 128 µg/mL
MIC [6]: 16 µg/mL (≈ 27.5 µM)
MIC (Proteus rettgeri PR2): 32 µg/mL (≈ 55 µM)
MIC [7]: 128 µg/mL (≈ 220 µM)
MIC [8]: 16 µg/mL (≈ 27.5 µM)
MIC [9]: 16 µg/mL (≈ 27.5 µM)
MIC [10]: > 128 µg/mL
MIC [11]: 32 µg/mL (≈ 55 µM)
MIC [12]: 32 µg/mL (≈ 55 µM)
MIC [13]: 32 µg/mL (≈ 55 µM)
MIC [14]: 32 µg/mL (≈ 55 µM)
MIC [15]: 128 µg/mL (≈ 220 µM)
MIC ([16]; X239, Table 1, read-out: Minimum Inhibitory Concentration): 64 µg/mL (≈ 110 µM)
MIC ([16]; X239, Table II, read-out: Minimum Inhibitory Concentration): 32 µg/mL (≈ 55 µM)
MIC [17]: 64 µg/mL (≈ 110 µM)
MIC [18]: 8 µg/mL (≈ 13.8 µM)
MIC [19]: 64 µg/mL (≈ 110 µM)
MIC [20]: 128 µg/mL (≈ 220 µM)
Minimum Inhibitory Concentration ([21]; Table 1): 64 µg/mL
MIC ([21]; Table II, read-out: Minimum Inhibitory Concentration): 64 µg/mL (≈ 110 µM)
MIC [22]: 64 µg/mL (≈ 110 µM)
MIC [23]: 32 µg/mL (≈ 55 µM)
MIC [24]: 32 µg/mL (≈ 55 µM)
MIC (Proteus rettgeri PR7): 32 µg/mL (≈ 55 µM)
MIC [25]: 128 µg/mL (≈ 220 µM)
MIC (Proteus inconstans PV25): 8 µg/mL (≈ 13.8 µM)
MIC (Serratia marcescens X99; X99, Table 1, read-out: Minimum Inhibitory Concentration): 16 µg/mL (≈ 27.5 µM)
MIC (Serratia marcescens X99; X99, Table II, read-out: Minimum Inhibitory Concentration): 4 µg/mL (≈ 6.88 µM)
MIC [26]: 8 µg/mL (≈ 13.8 µM)
MIC [27]: 32 µg/mL (≈ 55 µM)
MIC [28]: 32 µg/mL (≈ 55 µM)
MIC (Escherichia coli TEM): 16 µg/mL (≈ 27.5 µM)
MIC (Escherichia coli EC14): 16 µg/mL (≈ 27.5 µM)
MIC [29]: 16 µg/mL (≈ 27.5 µM)
MIC (Shigella sonnei N9): 32 µg/mL (≈ 55 µM)
MIC (Serratia marcescens SE2): 8 µg/mL (≈ 13.8 µM)
MIC [30]: 16 µg/mL (≈ 27.5 µM)
